Test results published in ChEMBL document CHEMBL1909499, “Protective effects of amentoflavone on Lamin A-dependent UVB-induced nuclear aberration in normal human fibroblasts” (Bioorg Med Chem Lett, 2011).
Activity calls are given as the source filed them.

Experiments:
Fibroblast [1] = assay: Antiaging activity in human fibroblasts assessed as reduction in UVB-induced lamin A protein level after 6 days by Western blot method; type: functional, cell-based
Fibroblast [2] = assay: Antiaging activity in fibroblasts isolated from human assessed as reduction in UVB-induced phospho-H2AX protein level after 6 days by Western blotting method; type: functional, cell-based
[3] = Cytotoxicity against human UVB-induced fibroblasts assessed as cell viability; type: cell-based; conditions: fibroblast
Fibroblast [4] = assay: Antiaging activity in human fibroblasts assessed as reduction in UVB-induced phospho-H2AX protein level after 6 days by Western blotting method; type: functional, cell-based
Fibroblast [5] = assay: Antiaging activity in human fibroblasts assessed as reduction of UVB-induced nucleus deformation after 6 days by confocal microscopy analysis; type: functional, cell-based
Fibroblast [6] = assay: Antiaging activity in human fibroblasts assessed as reduction in UVB-induced phospho-H2AX protein level after 6 days by confocal microscopy analysis; type: functional, cell-based

Measured: Activity

O=c1cc(-c2ccc(O)c(-c3c(O)cc(O)c4c(=O)cc(-c5ccc(O)cc5)oc34)c2)oc2cc(O)cc(O)c12 [AMENTOFLAVONE]
Non-toxic: [3]
active: Fibroblast [1] Dose-dependent effect | Fibroblast [2] Dose-dependent effect | Fibroblast [4] Dose-dependent effect | Fibroblast [5] | Fibroblast [6]
